Where two headings read alike, the source gives them in different places.
Target: T1, Drosophila OR85b (Drosophila melanogaster, UniProt Q9VHQ7)
T1 construct: expressed in transfected cells
T1 sequence (Q9VHQ7 1-390): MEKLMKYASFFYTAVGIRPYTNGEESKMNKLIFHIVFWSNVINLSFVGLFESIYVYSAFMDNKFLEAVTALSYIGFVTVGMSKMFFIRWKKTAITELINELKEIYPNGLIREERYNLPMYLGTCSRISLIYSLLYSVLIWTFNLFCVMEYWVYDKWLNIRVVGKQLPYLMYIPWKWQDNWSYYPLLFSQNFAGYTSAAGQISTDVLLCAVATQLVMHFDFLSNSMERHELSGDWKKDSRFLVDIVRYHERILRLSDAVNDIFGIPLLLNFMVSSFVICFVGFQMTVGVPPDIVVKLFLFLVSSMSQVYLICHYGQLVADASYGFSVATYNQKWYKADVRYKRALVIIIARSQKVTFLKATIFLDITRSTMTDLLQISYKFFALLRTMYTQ
T1 sequence (Q9VNB5 1-486 partner): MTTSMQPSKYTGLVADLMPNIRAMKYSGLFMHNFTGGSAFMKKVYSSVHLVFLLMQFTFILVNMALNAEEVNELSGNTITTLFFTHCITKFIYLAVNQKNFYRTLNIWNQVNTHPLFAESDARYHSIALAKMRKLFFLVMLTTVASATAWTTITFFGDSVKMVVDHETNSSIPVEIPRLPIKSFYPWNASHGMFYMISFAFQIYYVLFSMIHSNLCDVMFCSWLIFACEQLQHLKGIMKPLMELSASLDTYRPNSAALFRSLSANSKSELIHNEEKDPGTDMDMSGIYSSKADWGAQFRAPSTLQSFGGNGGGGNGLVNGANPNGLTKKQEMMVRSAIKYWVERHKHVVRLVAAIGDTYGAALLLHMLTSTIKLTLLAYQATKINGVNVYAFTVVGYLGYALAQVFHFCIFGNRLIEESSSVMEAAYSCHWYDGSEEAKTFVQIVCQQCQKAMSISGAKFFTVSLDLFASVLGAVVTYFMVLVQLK
Assay: Calcium ion fluorescence (GCaMP6) assay, OR85b stable HEK293 cell line
Format: cell-based
Conditions: for OR85b response (VUAA1-normalized) at 1 μM / OR85b response (VUAA1-normalized) at 10 μM / OR85b response (VUAA1-normalized) at 100 μM / Average response: OR85b cell line; for Average response: VUAA1-normalized response, mean of biological replicates
Experimental: These VUAA1 normalized ∆F values were used to compare the different receptors and ligands.
The concentration-dependent effect of the reference ligands on their cognate cell lines was examined in more detail. Twelve different ligand concentrations were measured on each cell line in an overall 0.01 μM to 100 μM concentration range with 5 repetitions with three technical replicates each time.
Twelve thousand to 18,000 cells were plated into each well of a black wall, transparent bottom 384-well microplate (Greiner) 48 h or 72 h before the measurements and were simultaneously treated with 1 μg/mL doxycycline. […] The plate has 24 columns, thus we could record responses in up to eight different cell lines in each plate. On the day of the experiment, the growth medium was replaced with 20 µL assay buffer/well (140 mM NaCl, 5 mM KCl, 2 mM CaCl2, 1 mM MgCl2, 5 mM HEPES-Na, 20 mM glucose, pH 7.3, 340 mOsm). […] Baseline fluorescence (F0) was recorded for 5 s, after which 7 µL VOC buffer (140 mM NaCl, 5 mM KCl, 2 mM CaCl2, 1 mM MgCl2, 5 mM HEPES-Na, 31 mM glucose, 0.1% DMSO, pH 7.3, 340 mOsm) was injected into each well in one row and the fluorescence response was recorded for an additional 30 s, at a rate of one read/sec. VOC solutions (VOC buffer with 4× concentration of the final measured VOC concentration, 9 µL/well was injected) were measured on the same wells in a second round with the same protocol. Each individual concentration of a specific VOC sample was recorded in three wells for the same cell line on the same microplate. The raw data were exported in xls file format, F0 and FMAX values, and the fluorescence intensity changes (∆F) were calculated in Excel (Microsoft) (Supplementary file Data summary.xlsx) using the following equation: ΔF=FMAX-F0/F0 (see also Fig. 1C). On each plate, we recorded the response of each cell line to 50 µM VUAA1. The average of these ∆F values of each cell line were used to calculate the VUAA1-normalized values for the rest of the plate, by dividing VOC response ∆F values by the average VUAA1 response ∆F value of the corresponding OR cell line. Each VOC-OR combination was measured three times as technical replicates. […] The average of these replicates were used as one ∆F and VUAA1-normalized ∆F in the following analysis.
In the next rows we tested the reference VOCs (or other VOCs known to activate the corresponding cell lines), in order to test if all cell lines are responsive. The remaining rows were used to test VOCs with unknown effect.
The recorded FMAX, F0, ∆F, VUAA1-normalized ∆F values, as well as the OR name, the name of the tested sample, and the final concentration for each well were copied into supplementary file Data summary.xlsx, that was used to summarize all the plates recorded. Here, the averages of the measurements were calculated for each receptor-VOC-concentration combination.

[1] = ligand concentration 1 (unit not given), threshold 0.05, below shown as 0
[2] = ligand concentration 10 (unit not given), threshold 0.05, below shown as 0
[3] = ligand concentration 100 (unit not given), threshold 0.05, below shown as 0
[4] = HEK293, read-out: OR85b Average response (VUAA1-normalized)
[5] = ligand concentration 1 (unit not given), 0.05 threshold, values below shown as 0
[6] = ligand concentration 10 (unit not given), 0.05 threshold, values below shown as 0
[7] = ligand concentration 100 (unit not given), 0.05 threshold, values below shown as 0
[8] = HEK293, read-out: OR85b response (VUAA1-normalized response)
[9] = concentration 1, normalized fluorescence change, values below 0.05 threshold given as 0
[10] = concentration 10, normalized fluorescence change, values below 0.05 threshold given as 0
[11] = concentration 100, normalized fluorescence change, values below 0.05 threshold given as 0

Row | Compound | OR85b response (VUAA1-normalized) at 1 μM (VOC concentration 1 μM) | OR85b response (VUAA1-normalized) at 10 μM (VOC concentration 10 μM) | OR85b response (VUAA1-normalized) at 100 μM (VOC concentration 100 μM) | Average response (cc. 1 µM) | Average response (cc. 10 µM) | Average response (cc. 100 µM) | DF norm AVERAGE OR85b [5] | DF norm AVERAGE OR85b [6] | DF norm AVERAGE OR85b [7] | DF norm AVERAGE OR85b [9] | DF norm AVERAGE OR85b [10] | DF norm AVERAGE OR85b [11] | further results
1 | Cc1ccc(C)cc1 [p-xylene] | 0.00 | 0.15 | 0.06 | 0.0373 | 0.15 | 0.06 |  |  |  |  |  |  | DF norm AVERAGE OR85b [1]: 0; DF norm AVERAGE OR85b [2]: 0.1515; DF norm AVERAGE OR85b [3]: 0.06066
2 | Cc1ccccc1 [toluene] | 0.0843 | 0.07 | 0.11 | 0.0843 | 0.07 | 0.11 | 0.08429 | 0.067 | 0.1125 |  |  |  | activation at 1 µM [4]: 8%; activation at 10 µM [4]: 7%; activation at 100 µM [4]: 11%
3 | CC1=CCC23CC1C(C)(C)C2CCC3C (stereo not drawn) [α-funebrene] | 0.10 | 0.00 | 0.26 | 0.10 | 0.00 | 0.26 | 0.09747 | 0 | 0.2621 |  |  |  | activation at 1 µM [4]: 10%; activation at 10 µM [4]: 0%; activation at 100 µM [4]: 26%
4 | CCCCCCCCCCC [undecane] | 0.00 | 0.05 | 0.11 | 0.0284 | 0.05 | 0.11 | 0 | 0.05165 | 0.1131 |  |  |  | activation at 1 µM [4]: 3%; activation at 10 µM [4]: 5%; activation at 100 µM [4]: 11%
5 | CCCC(O)CC (stereo not drawn) [3-hexanol] |  |  |  | 0.00 | 0.10 | 0.0225 |  |  |  | 0 | 0.09908 | 0 | activation at 1 µM [8]: 0%; activation at 10 µM [8]: 10%; activation at 100 µM [8]: 0%
6 | CC/C=C\CCOC(C)=O [z3-hexenyl acetate] |  |  |  | 0.15 | 0.00 | 0.00 | 0.1453 | 0 | 0 |  |  |  | 
7 | C=C1CCC2(C(C)C)CC12 (stereo not drawn) [sabinene] | 0.0647 | 0.00 | 0.09 | 0.0647 | 0.0439 | 0.09 |  |  |  |  |  |  | DF norm AVERAGE OR85b [1]: 0.06468; DF norm AVERAGE OR85b [2]: 0; DF norm AVERAGE OR85b [3]: 0.08701
8 | (-)-alpha-cedrene |  |  |  | 0.00 | 0.0466 | 0.0948 |  |  |  | 0 | 0 | 0.09481 | OR85b response (VUAA1-normalized response) (VOC concentration 1 μM): 0.00; OR85b response (VUAA1-normalized response) (VOC concentration 10 μM): 0.00; OR85b response (VUAA1-normalized response) (VOC concentration 100 μM): 0.0948
9 | CCCCCCCCCCCCCC [tetradecane] | 0.10 | 0.0844 | 0.00 | 0.10 | 0.0844 | 0.04 | 0.0972 | 0.08442 | 0 |  |  |  | 
10 | COc1cccc(OC)c1 [1,3-dimethoxy benzene] |  |  |  | 0.00 | 0.0268 | 0.0367 |  |  |  | 0 | 0 | 0 | activation at 1 µM [8]: 0%; activation at 10 µM [8]: 0%; activation at 100 µM [8]: 0%
11 | C=C1CC[C@H]2O[C@]2(C)CC[C@@H]2[C@@H]1CC2(C)C [(-)-caryophyllene oxide] |  |  |  | 0.00 | 0.00 | 0.036 |  |  |  | 0 | 0 | 0 | activation at 1 µM [8]: 0%; activation at 10 µM [8]: 0%; activation at 100 µM [8]: 0%

Reference: publication PMC10709440, “High-throughput ligand profile characterization in novel cell lines expressing seven heterologous insect olfactory receptors for the detection of volatile plant biomarkers” (Scientific Reports, 2023)
